Where a SMILES comes first, the peptide text is derived from it.
System: drug-resistant Mycobacterium tuberculosis
Conditions: drug-resistant Mycobacterium tuberculosis growth; peptide 10 micrograms per ml; seven days

Structure (SMILES): NCCCC[C@H](NC(=O)[C@@H](N)CCCCN)C(=O)NCC(=O)N[C@@H](CCC(=O)O)C(=O)O [MPF, Lys-Lys-Gly-Glu-OH] (H-KKGE-OH)
- % inhibition: 0.0%
